Earlier results in patent US20070161636A1, “Method of analyzing physiological function of target substance” (priority 2003, published 2007).
Read-outs that look alike come from different tables or passages of the source.

maximum absorption (max λ) (in ethanol): 523 nm
maximum absorption (max λ) (in water): 517 nm
SMILES: O=C1OC2(c3ccccc31)c1cc(Br)c(O)c(Br)c1Oc1c2cc(Br)c(O)c1Br [eosin, tetrabromofluorescein]
